{"source": "patent US20230226135A9", "about": "“ACETYLCHOLINE MODULATION OF IMMUNE FUNCTION” (BCell Solutions, Inc., priority 2019, published 2023)", "key": {"[1]": {"test": "LPS model of sepsis, autoregulation of arterial pressure / afferent arteriolar autoregulatory behavior", "assay_type": "in vivo", "settings": "LPS treated rats, CAP treatment", "procedure": "FIGS. 16A-16B. Treatment with CAP restores afferent arteriolar autoregulatory behavior in chronic LPS (0.1 mg/kg/day) treated kidneys. Each data point represents the mean±SE. * P<0.05 vs. control diameter in the same group. ‡ P<0.05 vs. control for the same perfusion pressure. # P<0.05 vs. CAP for the same perfusion pressure.\nSepsis is a potentially life-threatening condition, is caused by excessive inflammation resulting from the body trying to fend off infection. […] LPS treatment (0.84 mg/kg) of rats is used as a model of sepsis and results in loss of arterial pressure that is inflammatory and mimics loss of autoregulation in sepsis. We discovered that autoregulation of arterial pressure can be restored with CAP treatment (FIG. 16), further supporting its use to treat infectious disease associated with sepsis."}, "splenic B cells": {"tested_on": "splenic B cells", "test": "CFA-sensitized mice treated with Peptide with or without MLA, FACS of splenic B cells", "assay_type": "in vivo", "procedure": "SUMMARY: A study was conducted to evaluate a potential alpha7 nAChR anti-inflammatory mechanism of the MKR-4 peptide, using the alpha7 nAChR antagonist methyllycaconitine (MLA). After enrollment, animals in Groups 2-4 were sensitized ID at the base of the tail with 0.1 mL FCA on Day 1. On Days 2, 3, 5 & 7 Groups were then dosed intraperitoneally (IP) with either: peptide and MLA in combination (2 mg/kg and 6 mg/kg, respectively); peptide (2 mg/kg) and MLA vehicle (saline) in combination; or peptide vehicle (saline) and MLA vehicle (saline). Animals were dosed once on Study Day 2 (MLA or MLA vehicle), and Days 3, 5 & 7 (Peptide or Peptide vehicle, MLA or MLA vehicle) as described in Table 2 below. Body weights were recorded on Study Days 0 & 8. Mice were euthanized for necropsy on Study Day 8, and serum and whole spleens were collected from all animals and sent to the sponsor for internal FACS analysis. Toxicity and Peptide mechanistic evaluation was based on absolute body weight change, spleen weights and sponsor FACS analysis (not included in report).\nAntibodies and Flow Cytometry. Single cell suspensions were made of tissues or cells harvested from culture and stained with the following monoclonal antibodies: a monoclonal antibody directed against mouse alpha 7 nicotinic acetylcholine receptor (alpha 7 nAChR) (Santa Cruz Biotechnology); anti-mouse MHC Class II (M5114), and anti-mouse CLIP 15G4, Santa Cruz. Following staining, cells were analyzed comparing each level of staining to the appropriate isotype control on a Beckman Coulter Cytoflex benchtop flow cytometer. Data was analyzed using FlowJo software (Tree Star Inc.).\nExperimental Design: On Study Day 0, mice were weighed and randomized by body weight into treatment groups. Following randomization, on Study Day 1, Groups 2-4 were sensitized ID at the base of the tail with 0.1 mL of FCA. When MLA and Peptide (FRIMAVLAS (SEQ ID NO: 389))—or their vehicles—were dosed on the same day, the MLA antagonist or vehicle was dosed 1 hour before the Peptide or its vehicle.\nOn Study Day 8, mice were anesthetized with Isoflurane (VetOne, Cat #502017) and bled to exsanguination followed by cervical dislocation for necropsy and tissue collection."}, "IL1β and IL6": {"tested_on": "IL1β and IL6", "test": "Collagen-induced arthritis model (collagen emulsion in CFA), pro-inflammatory cytokines", "assay_type": "in vivo, mice", "procedure": "FIG. 8. Collagen-induced arthritis model. Animals were injected with a collagen emulsion in Complete Freunds Adjuvant (CFA) and treated with either CAP during early disease development or once arthritic disease was established.\nCentral to the overarching hypothesis, is the anti-inflammatory effects of CAP.\nRheumatoid arthritis (RA), an autoimmune condition caused by the immune system attacking healthy body tissue by directing antibodies to the lining of the joints, where they attack the tissue surrounding the joint. In an established mouse model of RA, induced by injection of collagen and Complete Freunds Adjuvant (CFA), there is an increase in the pro-inflammatory cytokines, IL1B and IL6 (FIG. 17). […] Therefore, different doses of CAP appear to be effective in the developing versus the established stages of the disease. These changes were accompanied by a reduction in peripheral B cells. These findings are important because IL6 and IL1B are differentially elevated depending on the severity of various infections, such as SARS-CoV-2. Thus, testing different doses of CAP at different stages of infection will be helpful to optimizing translational therapy."}, "[2]": {"test": "Preeclampsia model in pregnant mice (TLR agonists), blood pressure", "assay_type": "in vivo", "settings": "TLR agonist induced, CAP i.p. 2 mg/kg", "procedure": "FIG. 15. CAP reverses inflammatory characteristics in a preeclampsia model. Pregnant mice were treated with TLR agonists (R837, Clo97, and PIC) to induce symptoms of preeclampsia followed by CAP treatment (shown as TPP).\nPreeclampsia, a disease suffered by pregnant woman that is characterized by high blood pressure and signs of damage to other organ systems, most often the liver and kidneys, is often accompanied by inflammation. […] Preeclampsia is also associated with an elevated TH17 response, including elevated IL17a, and elevated IL17a is associated with human and experimental hypertension and poor perinatal outcomes. […] Therefore, the anti-inflammatory effects of CAP were associated with improved outcomes in this model."}, "IL1b, IL6 and IL17": {"tested_on": "IL1b, IL6 and IL17", "test": "TBI-induced changes in brain cytokines", "assay_type": "in vivo, mice", "settings": "CAP i.p. 30 minutes after TBI, brains harvested 24 hours after TBI; not significant, under-powered", "procedure": "FIG. 10. TBI-induced changes in brain cytokines. TBI induced increase in brain IL1b, IL6 and IL17 are reversed by CAP. Cap was administered i.p. 30 minutes after TBI and brains were harvested 24 hours after TBI.\nIn a separate study, preeclampsia was induced in pregnant mice by injection of either the toll-like receptor 3 (TLR3) agonist, PolyI:C, or with the toll-like receptor 8 ([…]) agonist R837. […] It is pertinent to note that this power issue has been corrected."}}, "note": "“Also recorded” adds a separate entry of the source."}
{"sequence": "FRIMAVLAS [CAP, α7nAChR agonist]", "values": [{"measurement": "autoregulation of arterial pressure (afferent arteriolar autoregulatory behavior)", "setting": "[1]", "value": "restores"}, {"measurement": "percentage of splenic B cells", "setting": "splenic B cells; CFA treated and Peptide treated (2 mg/kg IP), vehicle 49.8%, CFA 50.1%", "value": 34.4, "unit": "%"}, {"measurement": "number of CLIP+ B cells", "setting": "splenic B cells; CFA treated mice, Peptide 2 mg/kg IP", "value": "reduction"}, {"measurement": "reducing IL1β and IL6", "setting": "IL1β and IL6; 0.2 mg/kg i.p., developing stage", "value": "most efficacious"}, {"measurement": "reducing IL1β and IL6", "setting": "IL1β and IL6; 20 mg/kg i.p., established stage", "value": "most efficacious"}, {"measurement": "peripheral B cells", "setting": "IL1β and IL6; RA model, CAP i.p.", "value": "reduction"}, {"measurement": "cytokines", "setting": "IL1β and IL6; early or established disease, particularly in the established (late stage) model", "value": "dose dependent reduction"}, {"measurement": "reducing IL1B and IL6", "setting": "IL1β and IL6; i.p. 2 mg/kg, developing stage", "value": "most efficacious"}, {"measurement": "elevated blood pressure", "setting": "[2]", "value": "significantly reduced"}, {"measurement": "brain IL1b, IL6 and IL17", "setting": "IL1b, IL6 and IL17", "value": "trend toward a reduction; also recorded: reversed"}]}
